PubChem BioAssay (NCI)
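Dose response: 5 concentrations. Exposure: 48 h. Format: 96-well plates. Endpoint: linear interpolation; highest concentration if not reached. TGI: concentration producing complete growth inhibition.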

Tests used:
Experiment in all cases: NCI tumour cell line growth inhibition, 48 h
HOP-92 NSCLC = test system: HOP-92 NSCLC
SNB-75 CNS = test system: SNB-75 CNS
NCI-H226 lung = test system: NCI-H226 lung
DMS 114 small cell lung = test system: DMS 114 small cell lung
M19-MEL melanoma = test system: M19-MEL melanoma
KM20L2 colon = test system: KM20L2 colon
DLD-1 colon = test system: DLD-1 colon
SNB-78 CNS = test system: SNB-78 CNS
LXFL 529 NSCLC = test system: LXFL 529 NSCLC
DMS 273 small cell lung = test system: DMS 273 small cell lung
XF 498 CNS = test system: XF 498 CNS

Structure (SMILES) | TGI (HOP-92 NSCLC) [µM] | TGI (SNB-75 CNS) [µM] | TGI (NCI-H226 lung) [µM] | further results
CN1CN(c2ccccc2)C2(CCN(CCCC3(c4cccs4)OCCO3)CC2)C1=O | > 100 | > 100 | > 100 | –
COc1ccc(NC2Oc3cc4c(cc3C(c3cc(OC)c(OC)c(OC)c3)C2C)OCO4)cc1 (stereo unspecified) | 33.7 | > 100 | 5.58 | –
CCN(CCCN(CC)C(=O)N[C@@H](Cc1ccccc1)C(=O)NC)C(=O)N[C@@H](Cc1ccccc1)C(=O)NC | > 100 | – | > 100 | –
CCOP(=O)(OCC)/C(F)=C/c1ccccc1 | > 100 | > 100 | – | –
Cc1ccc(C2=Nc3c(c(C)nn3-c3ccccc3)N=C(C(=O)O)C2)cc1 | > 10 | > 10 | > 10 | –
O=C1CC(c2ccc([N+](=O)[O-])cc2)C2(C(=O)NC(=S)NC2=O)C(c2ccc([N+](=O)[O-])cc2)C1 (stereo unspecified) | > 100 | > 100 | 36.9 | –
CC(C)c1c(P(=O)(c2ccccc2)c2ccccc2)n(C)c2ccccc12 | > 100 | > 100 | > 100 | –
C=CC/C(C(=O)OC)=C(/C(=O)OC)N(CCC)CCC | > 100 | > 100 | > 100 | –
C(=Nc1ccc(-c2nc3ccccc3s2)cc1)c1ccco1 | > 100 | > 100 | > 100 | –
Cc1ccc(C(=O)Nc2ccc(CP(=O)(O)O)cc2)cc1NC(=O)c1cccc(NC(=O)Nc2cccc(C(=O)Nc3cc(C(=O)Nc4ccc(CP(=O)(O)O)cc4)ccc3C)c2)c1 | – | > 100 | > 100 | –
O=C(CCc1ccc(O)cc1)c1c(O)cc(O)cc1OC1OC(CO)C(O)C(O)C1O (stereo unspecified) | > 100 | > 100 | – | –
O=C1/C(=C/c2ccc(F)cc2)CNC/C1=C\c1ccc(F)cc1 | > 21.5 | 18.3 | 15.3 | –
COC(c1ccc(C(C)(C)C)cc1)(c1ccc(C(C)(C)C)cc1)c1cc(C(O)(c2cc(C(OC)(c3ccc(C(C)(C)C)cc3)c3ccc(C(C)(C)C)cc3)c(C)cc2C)c2cc(C(OC)(c3ccc(C(C)(C)C)cc3)c3ccc(C(C)(C)C)cc3)c(C)cc2C)c(C)cc1C | > 100 | > 100 | > 100 | –
N#Cc1c(OCCF)c2ccccc2n2c1nc1ccccc12 | – | > 100 | > 100 | –
O=C1/C(=C/c2ccc(Br)s2)NC(=S)N1CN1CCOCC1 | – | > 100 | > 100 | –
O=c1nc2c(c(-c3cccc(Cl)c3)[nH]1)COC/C2=C\c1cccc(Cl)c1 | > 100 | > 100 | > 100 | –
CC1=CC=CC(C)(C)CC1(O[Si](C)(C)C)C(F)(F)F (stereo unspecified) | > 100 | > 100 | > 100 | –
O=[N+]([O-])C(=C(Sc1ccccc1)Sc1ccccc1)C(Cl)=C(Cl)Cl | 5.99 | 10.7 | 1.31 | –
CC(=O)OCC1OC(n2c(=S)[nH]c(-c3ccccc3)c(C#N)c2=O)C(OC(C)=O)C(OC(C)=O)C1OC(C)=O (stereo unspecified) | > 100 | > 100 | > 100 | –
O=C(OCc1ccccc1)OOC(=O)OCc1ccccc1 | > 100 | > 100 | – | TGI (DMS 114 small cell lung): > 100 µM; TGI (M19-MEL melanoma): > 100 µM; TGI (KM20L2 colon): > 100 µM; TGI (DLD-1 colon): > 100 µM; TGI (SNB-78 CNS): > 100 µM; TGI (LXFL 529 NSCLC): > 100 µM

Structure (SMILES) | TGI (HOP-92 NSCLC) [µM] | TGI (SNB-75 CNS) [µM] | TGI (NCI-H226 lung) [µM] | further results
O=C(O)CNC(=O)c1ccc([As](=O)(O)O)cc1 | > 100 | > 100 | > 100 | –
Cc1nc2ccc([N+](=O)[O-])cc2c(=O)n1C(=S)Nc1cccc(Cl)c1 | 25.6 | 40.8 | 44 | –
Cc1nc(Cl)c(CBr)c(Cl)n1 | – | 2.26 | 6.73 | –
CC1=C2c3ccccc3N(C(=O)/C=C/C(=O)O)[C@H]2[C@H]2C(=O)OC(=O)[C@H]2C1 | – | > 10 | > 10 | –
N#CC(C#N)=C1CCCS(=O)(=O)c2ccccc21 | > 100 | > 100 | > 100 | –
CCN(CC)CCCn1c(=O)c2cccnc2n2c3c(=O)n(C)c(=O)n(C)c3nc12 | > 100 | > 100 | > 100 | –
COC(=O)CCCC(=O)C(=Nc1c(Cl)cccc1Cl)NNc1ccc(Cl)cc1 | > 100 | > 88.9 | > 100 | –
CC(C)CCNC(=O)c1ccc(CNC(=O)/C=C/c2ccc(OCc3ccccc3)cc2)cc1 | > 100 | > 100 | > 100 | –
C/C(=N/NC(=S)Nc1cccc(C)c1)c1ccccn1 | 6.12 | 5.08 | 1.28 | –
CN(C)c1ccc(/C(Br)=C2\OC(=O)c3ccccc32)cc1 | – | > 100 | > 100 | –
CC(=O)Nc1ccc(Cl)c(Cl)c1 | – | > 100 | > 100 | TGI (DMS 273 small cell lung): > 100 µM; TGI (DMS 114 small cell lung): > 100 µM; TGI (M19-MEL melanoma): > 100 µM; TGI (KM20L2 colon): > 100 µM; TGI (DLD-1 colon): > 100 µM; TGI (SNB-78 CNS): > 100 µM; TGI (LXFL 529 NSCLC): > 100 µM
O=C(O)c1ccc(NS(=O)(=O)Cc2ccccc2)cc1 | > 100 | > 100 | – | –
Nc1ncnc2c1ncn2C(=O)NC12CC3CC(CC(C3)C1)C2 | > 100 | > 100 | > 100 | –
CO/N=C1/c2sccc2[C@H](NC(=O)CNC(=O)OC(C)(C)C)[C@@H]1O | > 100 | > 100 | > 100 | –
O=C1C(Cl)N(c2ccccc2)C1c1c[nH]c2ccccc12 (stereo unspecified) | > 100 | > 100 | – | TGI (DMS 114 small cell lung): > 100 µM; TGI (M19-MEL melanoma): > 100 µM; TGI (XF 498 CNS): > 100 µM; TGI (KM20L2 colon): > 100 µM; TGI (LXFL 529 NSCLC): > 100 µM
COc1ccc2c(c1)C(=O)c1ccccc1C2 | > 100 | 63.5 | > 100 | –
c1ccc2c(c1)CCCN1CCc3ccccc3C21 (stereo unspecified) | > 100 | > 100 | > 100 | –
N#Cc1c2c(c(Nc3ccc(F)cc3)n3c1nc1ccccc13)CCC2 | 20.5 | 16.7 | 22.7 | –
CSc1c(C(=O)Nc2ccc(C)cc2)c(N)[nH]c(=O)c1C#N | – | > 100 | > 100 | –
